Measured values reported in patent publication US20260250636A1, “A METHOD FOR PRODUCING A BIOENGINEERED MAMMAL INDUCED PLURIPOTENT STEM CELL-DERIVED CARDIAC ORGANOID” (INSTITUT NATIONAL DE LA SANTÉ ET DE LA RECHERCHE MÉDICALE, priority 2022, published 2026).

Legend:
Assay type in all cases: cell-based, human
[1] = test system: c-met cardiac organoids; test: OCR/ECAR and energy phenotype (Seahorse XFp) under cobalt chloride-mimicked hypoxia
Experimental: Cardiac organoids cultured for 3-4 months in 96 wells were transferred randomly to XFp mini plates (1-6 organoids/well, 300 to 1100 μm in diameter) (Seahorse, Agilent). The cardiac culture medium was treated with 200 μM CoCl2 (sigma) concentration for 24 hours. To evaluate the effects of HGF stimulation and c-met inhibition we have used respectively HGF at 50 ng/ml (R&D Systems) and SU11274 at […] (Sigma) under hypoxia. OCR, ECAR and energy phenotype test were all measured using a Seahorse XFp analyzer (Seahorse, Agilent). On the day of testing, cells were incubated in XF assay medium for 1 hr at 37° C. in non-CO2 incubator before measurement. Cell energy phenotype kit was used with port A containing the FCCP/oligomycin stressor mix at 2.0/1.0 μM (final well concentration). OCR and ECAR were normalized to the cell numbers of each wells. Cells were stained with DAPI and calculated from Leica confocal microscope images.

[2] = test system: control cardiac organoids; test: as above; conditions: after CoCl2 hypoxia 24 h; control group as compared to c-met group
Experimental: (§1) Cardiac organoids cultured for 3-4 months in 96 wells were transferred randomly to XFp mini plates (1-6 organoids/well, 300 to 1100 μm in diameter) (Seahorse, Agilent). The cardiac culture medium was treated with 200 μM CoCl2 (sigma) concentration for 24 hours. To evaluate the effects of HGF stimulation and c-met inhibition we have used respectively HGF at 50 ng/ml (R&D Systems) and SU11274 at 5 M (Sigma) under hypoxia.
OCR, ECAR and energy phenotype test were all measured using a Seahorse XFp analyzer (Seahorse, Agilent). On the day of testing, cells were incubated in XF assay medium for 1 hr at 37° C. in non-CO2 incubator before measurement. Cell energy phenotype kit was used with port A containing the FCCP/oligomycin stressor mix at 2.0/1.0 μM (final well concentration). OCR and ECAR were normalized to the cell numbers of each wells. Cells were stained with DAPI and calculated from Leica confocal microscope images.

[3] = test system: c-met cardiac organoids; test: Cobalt chloride-mimicked hypoxia, proBNP and caspase-3 immunostaining; conditions: 200 μM CoCl2 hypoxia 24 h, n=8, normalized by DAPI fluorescence intensity
Experimental: (§2) Cardiac organoids cultured on 24 or 96-well culture plates were washed with phosphate-buffered saline (PBS), fixed with 4% paraformaldehyde in PBS for 60 min, permeabilized with 0.2% Triton X-100 (Sigma) in PBS and blocked 10% serum. Primary antibodies were diluted in PBS 10% serum at the following concentrations: phospho-Met; 1:100 (Cell Signaling Technologies), phospho-STAT3; 1:200 (Cell Signaling Technologies), Sarcomeric Alpha Actinin; 1:200 (Abcam), MLC-2A; 1:100 (Synaptic Systems), MLC-2V; 1:100 (Synaptic Systems), Cardiac troponin T; 1:100 (Abcam), CD31; 1:100 (Abcam), Caspase-3; 1:100 (Cell Signaling Technologies), ProBNP; 1:100 (Abcam), and then washed three times in PBS. The samples were incubated with secondary antibodies in antibody dilution buffer, then washed in PBS. Nuclei were labeled with DAPI mounting medium. The negative control performed a secondary antibody only (data not shown). Visualization and capture were realized with a Leica confocal microscope and LAS AF software.
as §1

[4] = test system: control cardiac organoids; test: as above; conditions: 200 μM CoCl2 hypoxia 24 h, n=5, normalized by DAPI fluorescence intensity
Experimental: as §2, §1

SMILES | energy phenotype (OCR versus ECAR) ([1]; after CoCl2 hypoxia 24 h, c-met organoids versus control) | glycolysis activity (ECAR) [2] | caspase-3+ cells intensity [3] | proBNP+ cells intensity [3] | caspase-3+ cells intensity [4] | proBNP+ cells intensity [4] | glycolysis activity at the baseline (ECAR) ([1]; c-met organoids, CoCl2 + SU11274 24 h, compared with HGF-treated (50 ng/ml) control organoids)
[Cl][Co][Cl] [cobalt, cobalt chloride] | more energetic than control | decreased | 0.34±0.16 | 0.73±1.4 | 0.61±0.11 | 0.78±0.16 | –
Cc1[nH]c(/C=C2\C(=O)Nc3ccc(S(=O)(=O)N(C)c4cccc(Cl)c4)cc32)c(C)c1C(=O)N1CCN(C)CC1 [SU11274] | – | – | – | – | – | – | significantly decreased
